Measured values taken from patent US4749706A (priority 1986, dated 1988).
“And” between values parts separate entries of the source, which are not always exact repeats. Identical values can stand only once. Like-named read-outs stand apart in the source and are kept apart here.

Tests used:
[1] = writhing assay (analgesia); format: in vivo; conditions: compared with morphine
Description: (§1) Analgesic activity was measured using the tail-flick assay of D'Amour, F. D., et al, J. Pharmacol. Exper. (1941) 72: 74, or by the writhing assay described by Blumberg, H., et al, Proc. Soc. Exp. Biol. Med. (1965) 118: 763. The antagonist activity, considered a measure of nonaddictiveness, was measured by the opiate receptor assay of Pert, C., et al, Mol. Pharmacol. (1974) 10: 868. Antagonist activity was also measured using the induced Straub tail method as described by De Graw, J., et al, J. Med Chem (1978) 21: 415; and Blumberg, H., et al, Advances in Chemical Psychopharmacology, Vol. 8, M. Braudy, et al, ed. Raven Press, New York, N.Y. (1973), 33-43. A direct and simple assay measuring physical dependence is the mouse jump test described by Saelens, J., et al, Arch Int Pharmacodyn (1971) 190: 213.

[2] = as disclosed in U.S. Pat. No. 4,218,454; cited from earlier work
[3] = in vivo
[4] = induced Straub tail method (antagonist activity); conditions: for ED50: read-out: Antagonism ED50, Straub Tail
opiate receptor = biological target: T1, opiate receptor (Rattus norvegicus, UniProt P33535); experiment: biochemical; format: binding
T1 construct: from tissue

[5] = mouse jump test (physical dependence); format: in vivo; conditions: after 100 mg/kg naloxone on day 4; 30 min
Description: as §1
Physical dependence, a much more direct measure of non-addictive properties than antagonist activity, was evaluated using the mouse jump test. Mice are injected intraperitoneally 5 times on day 1 with increasing doses of test compound ranging from 8-100 mg/kg body weight. On days 2 and 3 the mice are given 100 mg/kg 4 times. On day 4 all mice receive 100 mg/kg of the antagonist naloxone in a single dose. The mice are then caged for 30 min, and a record is made of the number jumping during this time.

[6] = +NaCl, read-out: Opiate Receptor Inhibition 1C50
[7] = -NaCl, read-out: Opiate Receptor Inhibition 1C50

T1 sequence (P33535 whole entry): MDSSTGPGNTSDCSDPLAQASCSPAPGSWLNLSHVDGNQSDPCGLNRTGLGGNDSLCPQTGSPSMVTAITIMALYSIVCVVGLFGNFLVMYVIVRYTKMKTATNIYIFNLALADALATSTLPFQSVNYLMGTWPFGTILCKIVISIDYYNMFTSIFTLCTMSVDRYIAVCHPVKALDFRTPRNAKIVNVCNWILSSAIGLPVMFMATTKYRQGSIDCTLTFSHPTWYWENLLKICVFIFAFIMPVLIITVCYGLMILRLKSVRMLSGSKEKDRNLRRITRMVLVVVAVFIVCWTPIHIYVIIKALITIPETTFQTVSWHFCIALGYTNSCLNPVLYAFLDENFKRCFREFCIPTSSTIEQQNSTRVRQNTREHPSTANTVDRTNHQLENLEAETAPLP

## CC(C1CC1)N1CC[C@]23c4c5ccc(O)c4O[C@H]2[C@@H](O)C=C[C@H]3[C@H]1C5 (mixture of isomers) [N-α-Methylcyclopropylmethylnormorphine]
[1]
  potency relative to morphine in the writhing assay: more than twice as potent
[2]
  addiction liability: little or no addiction liability
[3]; sc
  potency relative to morphine in the tail flick assay: about 85%
[4]; in vivo
  antagonist potency relative to nalorphine: about one-fourth as potent as nalorphine
[4]
  ED50: 4.5 µmol/kg
Opiate receptor; [6]
  IC50: 6 nM
Opiate receptor; [7]
  IC50: 3 nM

## CC(C1CC1)N1CC[C@]23c4c5ccc(O)c4O[C@H]2[C@@H](O)C=C[C@H]3[C@H]1C5 (single isomer, unassigned; diastereomer a) [N--α-methylcyclopropyl-methyl normorphine (A)] [N-methylcyclopropylmethyl normorphine (diastereomer A)]
[3]
  activity relative to the diastereomeric mixture and to diastereomer B: much higher activity
  oral activity compared with subcutaneous morphine in the tail flick assay: approximated an equivalent dose of morphine administered subcutaneously
[3]; po
  duration of effectiveness: 4 h
  onset of action: 5 to 10 min
  times as potent as morphine in tail flick analgesia, oral: 6.2 times
[3]; sc
  activity of lower melting diastereomer A relative to higher melting form: about 25 times
  times as potent as morphine in the tail flick assay: 5.2 times
Opiate receptor
  times the affinity of N-sec-butylnormorphine in the opiate assay: about 122 times
  times the affinity of morphine in the opiate assay: over 43 times
Opiate receptor; competitive binding against 3H-dihydromorphine, A versus B
  times more tightly bound than the higher melting form: 30 times
In vivo
  Antagonism ED50, Tail Flick: > 213 µmol/kg

## CC(C1CC1)N1CC[C@]23c4c5ccc(O)c4O[C@H]2[C@@H](O)C=C[C@H]3[C@H]1C5 (single isomer, unassigned; diastereomer a) [N-methylcyclopropylmethyl normorphine (diastereomer A)]
Opiate receptor; [7]
  IC50: 0.23 nM

## CC(C1CC1)N1CC[C@]23c4c5ccc(O)c4O[C@H]2[C@@H](O)C=C[C@H]3[C@H]1C5 (single isomer, unassigned; diastereomer b) [N--α-methylcyclopropyl-methyl normorphine (B)] [N-methylcyclopropylmethyl normorphine (diastereomer B)]
[3]; sc
  potency relative to morphine in the tail flick assay (in words): only one-fifth as potent as morphine

## CC(C1CC1)N1CC[C@]23c4c5ccc(O)c4O[C@H]2[C@@H](O)C=C[C@H]3[C@H]1C5 (single isomer, unassigned; diastereomer b) [N-methylcyclopropylmethyl normorphine (diastereomer B)]
Opiate receptor; [7]
  IC50: 7 nM

## CC[C@@H](C)N1CC[C@]23c4c5ccc(O)c4O[C@H]2[C@@H](O)C=C[C@H]3[C@H]1C5 [N--sec-butyl normorphine (R), reference compound]
[2]
  addiction liability: little or no addiction liability
[4]
  ED50: 16.2 µmol/kg
Opiate receptor; [6]
  IC50: 110 nM
Opiate receptor; [7]
  IC50: 60 nM

## CC[C@H](C)N1CC[C@]23c4c5ccc(O)c4O[C@H]2[C@@H](O)C=C[C@H]3[C@H]1C5 [N--sec-butyl normorphine (S), reference compound]
[2]
  addiction liability: little or no addiction liability
[4]
  ED50: 7.4 µmol/kg
Opiate receptor; [6]
  IC50: 62 nM
Opiate receptor; [7]
  IC50: 28 nM

## CN1CC[C@]23c4c5ccc(O)c4O[C@H]2[C@@H](O)C=C[C@H]3[C@H]1C5 [morphine]
[3]
  time after which activity declines substantially: 3 h
[5]
  number of mice jumping: 10/10
[4]; Straub tail method
  Antagonism ED50, Straub Tail: 1 µmol/kg
Reversal of analgesia induced by morphine in the tail flick assay
  Antagonism ED50, Tail Flick: 2 µmol/kg

## C=CCN1CC[C@]23c4c5ccc(O)c4O[C@H]2[C@@H](O)C=C[C@H]3[C@H]1C5 [nalorphine, reference compound]
[2]
  addiction liability: little or no addiction liability
Opiate receptor; Opiate Receptor Inhibition 1C50
  IC50: 2 nM and 6 nM
In vivo
  Antagonism ED50, Tail Flick: 2.04 µmol/kg
